In patent EP4667458A1 (Kanaph Therapeutics Inc., priority 2023, dated 2024):

The compounds below were run against T1, SOS1 (Homo sapiens, UniProt Q07889) (assay: SOS-catalyzed nucleotide exchange assay (HTRF, SOS1-mediated GTP loading of KRAS G12D)). Conditions: GST-KRAS G12D, HIS-SOS1cat, EDA-GTP-DY-647P1; compound 128 pM to 10 µM; read-out: SOS-catalyzed nucleotide exchange assay (IC50 range, Grade).
T1 construct: adding equal amounts of HIS-SOS1cat (160 nM; Cytoskeleton, US); His; purchased Cytoskeleton, US
T1 sequence (Q07889 564-1049 limits assumed): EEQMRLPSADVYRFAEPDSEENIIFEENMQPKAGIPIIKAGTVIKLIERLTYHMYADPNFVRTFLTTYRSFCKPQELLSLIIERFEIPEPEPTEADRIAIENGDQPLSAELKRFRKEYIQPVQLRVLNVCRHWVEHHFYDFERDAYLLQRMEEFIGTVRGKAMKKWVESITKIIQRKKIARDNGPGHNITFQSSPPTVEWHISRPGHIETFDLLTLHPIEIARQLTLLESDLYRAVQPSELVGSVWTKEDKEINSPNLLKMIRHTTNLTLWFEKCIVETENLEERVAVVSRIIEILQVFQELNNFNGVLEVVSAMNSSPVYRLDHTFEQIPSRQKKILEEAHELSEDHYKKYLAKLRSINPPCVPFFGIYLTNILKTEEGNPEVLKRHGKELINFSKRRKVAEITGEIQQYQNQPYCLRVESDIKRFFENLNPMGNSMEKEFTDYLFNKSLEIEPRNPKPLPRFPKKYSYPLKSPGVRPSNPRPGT
Assay type: biochemical
Description: SOS1 activity was measured by SOS1-mediated GTP loading quantification of KRAS^G12D. GTP-loaded KRAS^G12D was detected by HTRF (Homogeneous Time Resolved Fluorescence) using anti-GST terbium (Cisbio, France) as a donor and a fluorescence GTP analogue (EDA-GTP-DY-647P1, [DY-647P1-labeled 2'/3'-O-(2-aminoethyl-carbamoyl)guanosine-5'-triphosphate (Jena bioscience, Germany)]) as an acceptor.
Assay buffer was composed of 10 mM HEPES pH 7.4, 150 mM NaCl, 5 mM MgCl2, 1 mM DTT, 0.05% BSA Fraction V pH 7.0 (Sigma) and 0.0025% (v/v) Igepal (Sigma). KRAS^G12D working solution was prepared by adding equal amounts of GST-KRAS^G12D (100 nM) and anti-GST-terbium (2 nM; Cisbio, France) to the assay buffer and incubating on ice for 10 minutes. SOS1cat working solution was prepared by adding equal amounts of HIS-SOS1cat (160 nM; Cytoskeleton, US) and EDA-GTP-DY-647P1 (200 nM; Jena bioscience, Germany) to the assay buffer. Control solution was prepared by adding equal volumes of EDA-GTP-DY-647P1 and the assay buffer for normalization control to exclude GEF-independent GTP loading and background signals. In order to induce a reaction, 5 µL of the SOS1cat working solution or the control solution was injected into each well. 5 µL of a compound having various concentrations from 128 pM to 10 µM was added to wells containing the SOS1cat working solution and incubated at room temperature for 10 minutes to bind to SOS1.
10 µL of the KRAS^G12D solution was added to each well and incubated for 30 minutes at room temperature while shaking. HTRF was measured using a Thermo Varioskan (excitation 334 nm, emission 665 nm). The IC50 of each inhibitor was analyzed using Graphad Prism.
The SOS1 inhibitory activity of the Example compounds measured by the above method was evaluated based on the following criteria, and the results are shown in Table 29.

| IC50 [nM] | Compound |
| --- | --- |
| < 1000 | COc1ccc(-n2nc(C(=O)N[C@H](C)c3cccc(C(F)(F)CO)c3F)ccc2=O)cc1 [Example 42, (R)-N-(1-(3-(1,1-difluoro-2-hydroxyethyl)-2-fluorophenyl)ethyl)-1-(4-methoxyphenyl)-6-oxo-1,6-dihydropyridazine-3-carboxamide] |
| < 1000 | CC(=O)Nc1cc(-n2cc(C(=O)N[C@H](C)c3cc(N)cc(C(F)(F)F)c3)ccc2=O)ccc1F [Example 113, 1-(3-acetamido-4-fluoro-phenyl)-N-[(1R)-1-[3-amino-5-(trifluoromethyl)phenyl]ethyl]-6-oxo-pyridine-3-carboxamide] |
| > 10000 | C[C@@H](NC(=O)c1ccc(=O)n(-c2ccccc2S(C)(=O)=O)n1)c1cc(N)cc(C(F)(F)F)c1 [Example 28, (R)-N-(1-(3-amino-5-(trifluoromethyl)phenyl)ethyl)-1-(2-(methylsulfonyl)phenyl)-6-oxo-1,6-dihydropyridazine-3-carboxamide] |
| 1000 to 10000 | C[C@@H](NC(=O)c1ccc(=O)n(C2CCOCC2)n1)c1cccc(Cl)c1 [Example 17, N-[(1R)-1-(3-chlorophenyl)ethyl]-6-oxo-1-tetrahydropyran-4-yl-pyridazine-3-carboxamide] |
| < 1000 | C[C@@H](NC(=O)c1ccc(=O)n(-c2ccccc2F)n1)c1cc(N)cc(C(F)(F)F)c1 [Example 46, (R)-N-(1-(3-amino-5-(trifluoromethyl)phenyl)ethyl)-1-(2-fluorophenyl)-6-oxo-1,6-dihydropyridazine-3-carboxamide] |
| < 1000 | COc1ccccc1-n1nc(C(=O)N[C@H](C)c2cccc(C(F)(F)CO)c2)ccc1=O [Example 38, N-[(1R)-1-[3-(1,1-difluoro-2-hydroxyethyl)phenyl]ethyl]-1-(2-methoxyphenyl)-6-oxo-pyridazine-3-carboxamide] |
| > 10000 | CCOc1cccc([C@@H](C)NC(=O)c2ccc(=O)n(-c3ccccc3)n2)c1 [Example 60, (R)-N-(1-(3-ethoxyphenyl)ethyl)-6-oxo-1-phenyl-1,6-dihydropyridazine-3-carboxamide] |
| 1000 to 10000 | CC(=O)Nc1ccccc1-n1nc(C(=O)N[C@H](C)c2cc(N)cc(C(F)(F)F)c2)ccc1=O [Example 52, (R)-1-(2-acetamidophenyl)-N-(1-(3-amino-5-(trifluoromethyl)phenyl)ethyl)-6-oxo-1,6-dihydropyridazine-3-carboxamide] |
| 1000 to 10000 | C[C@@H](NC(=O)c1ccc(=O)n(C2=CCCN(S(C)(=O)=O)C2)n1)c1cc(N)cc(C(F)(F)F)c1 [Example 69, N-[(1R)-1-[3-amino-5-(trifluoromethyl)phenyl]ethyl]-1-(1-methanesulfonyl-1,2,5,6-tetrahydropyridin-3-yl)-6-oxo-1,6-dihydropyridazine-3-carboxamide] |
| < 1000 | CNCc1ccc(Cl)cc1-c1cnc([C@@H](C)NC(=O)c2ccc(=O)n(-c3ccccc3F)n2)s1 [Example 137, N-[(1R)-1-[5-[5-chloro-2-(methylaminomethyl)phenyl]thiazol-2-yl]ethyl]-1-(2-fluorophenyl)-6-oxo-pyridazine-3-carboxamide] |
| < 1000 | COc1ccc(-n2nc(C(=O)N[C@H](C)c3cc(N)cc(C(F)(F)F)c3)ccc2=O)cc1 [Example 30, N-[(1R)-1-[3-amino-5-(trifluoromethyl)phenyl]ethyl]-1-(4-methoxyphenyl)-6-oxo-pyridazine-3-carboxamide] |
| < 1000 | C[C@@H](NC(=O)c1ccc(=O)n(-c2cccc(CO)c2)c1)c1cc(N)cc(C(F)(F)F)c1 [Example 71, N-[(1R)-1-[3-amino-5-(trifluoromethyl)phenyl]ethyl]-1-[3-(hydroxymethyl)phenyl]-6-oxo-1,6-dihydropyridine-3-carboxamide] |
| 1000 to 10000 | C[C@@H](NC(=O)c1ccc(=O)n(-c2ccccc2)n1)c1ccc2ccccc2c1 [Example 8, N-[(1R)-1-(2-naphthyl)ethyl]-6-oxo-1-phenyl-pyridazine-3-carboxamide] |
| < 1000 | C[C@@H](NC(=O)c1ccc(=O)n(-c2cccc(S(C)(=O)=O)c2)n1)c1cccc(C(F)(F)CO)c1 [Example 58, N-[(1R)-1-[3-(1,1-difluoro-2-hydroxy-ethyl)phenyl]ethyl]-1-(3-methylsulfonylphenyl)-6-oxo-pyridazine-3-carboxamide] |
| < 1000 | C[C@@H](NC(=O)c1ccc(=O)n(-c2ccccc2)n1)c1cccc(C(F)(F)CO)c1 [Example 57, N-[(1R)-1-[3-(1,1-difluoro-2-hydroxy-ethyl)phenyl]ethyl]-6-oxo-1-phenyl-pyridazine-3-carboxamide] |
| 1000 to 10000 | C[C@@H](NC(=O)c1ccc(=O)n([C@@H]2CCCC[C@H]2O)n1)c1cc(N)cc(C(F)(F)F)c1 [Example 124, N-((R)-1-(3-amino-5-(trifluoromethyl)phenyl)ethyl)-1-((1R,2R)-2-hydroxycyclohexyl)-6-oxo-1,6-dihydropyridazine-3-carboxamide] |
| 1000 to 10000 | CC(=O)N1CCC(n2nc(C(=O)N[C@H](C)c3cccc(Cl)c3)ccc2=O)CC1 [Example 18, 1-(1-acetyl-4-piperidyl)-N-[(1R)-1-(3-chlorophenyl)ethyl]-6-oxo-pyridazine-3-carboxamide] |
| < 1000 | C[C@@H](NC(=O)c1ccc(=O)n(-c2cccc3ccccc23)n1)c1cc(N)cc(C(F)(F)F)c1 [Example 25, (R)-N-(1-(3-amino-5-(trifluoromethyl)phenyl)ethyl)-1-(naphthalen-1-yl)-6-oxo-1,6-dihydropyridazine-3-carboxamide] |
| 1000 to 10000 | C#Cc1cc(=O)n(-c2ccccc2)nc1C(=O)N[C@H](C)c1cc(N)cc(C(F)(F)F)c1 [Example 50, N-[(1R)-1-[3-amino-5-(trifluoromethyl)phenyl]ethyl]-4-ethynyl-6-oxo-1-phenyl-pyridazine-3-carboxamide] |
| < 1000 | Cc1ccccc1-n1nc(C(=O)N[C@H](C)c2cc(N)cc(C(F)(F)F)c2)ccc1=O [Example 41, N-[(1R)-1-[3-amino-5-(trifluoromethyl)phenyl]ethyl]-1-(o-tolyl)-6-oxo-pyridazine-3-carboxamide] |
| 1000 to 10000 | CC1CC=C(n2nc(C(=O)N[C@H](C)c3cc(N)cc(C(F)(F)F)c3)ccc2=O)CC1 (stereo partly drawn) [Example 66, N-[(1R)-1-[3-amino-5-(trifluoromethyl)phenyl]ethyl]-1-(4-methylcyclohex-1-en-1-yl)-6-oxo-1,6-dihydropyridazine-3-carboxamide] |
| 1000 to 10000 | 1-(1-acetylpiperidin-4-yl)-N-[(1R)-1-[3-amino-5-(trifluoromethyl)phenyl]ethyl]-6-oxo-1,6-dihydropyridazine-3-carboxamide [Example 118] |
| 1000 to 10000 | C[C@@H](NC(=O)c1ccc(=O)n(-c2ccccc2)n1)c1cccc(C2CC2)c1 [Example 14, N-[(1R)-1-(3-cyclopropylphenyl)ethyl]-6-oxo-1-phenyl-pyridazine-3-carboxamide] |
| 1000 to 10000 | Cc1cc(=O)n(-c2ccccc2)nc1C(=O)N[C@H](C)c1cc(N)cc(C(F)(F)F)c1 [Example 49, N-[(1R)-1-[3-amino-5-(trifluoromethyl)phenyl]ethyl]-4-methyl-6-oxo-1-phenyl-pyridazine-3-carboxamide] |
| < 1000 | C[C@@H](NC(=O)c1ccc(=O)n(-c2cccc(C(=O)N(C)C)c2)n1)c1cccc(C(F)(F)CO)c1F [Example 43, N-[(1R)-1-[3-(1,1-difluoro-2-hydroxy-ethyl)-2-fluorophenyl]ethyl]-1-[3-(dimethylcarbamoyl)phenyl]-6-oxo-pyridazine-3-carboxamide] |
| 1000 to 10000 | C[C@@H](NC(=O)c1ccc(=O)n(-c2cccc(NS(C)(=O)=O)c2)n1)c1cc(N)cc(C(F)(F)F)c1 [Example 34, (R)-N-(1-(3-amino-5-(trifluoromethyl)phenyl)ethyl)-1-(3-(methylsulfonamido)phenyl)-6-oxo-1,6-dihydropyridazine-3-carboxamide] |
